From patent US9670157B2, “Benzylamine derivatives” (KALVISTA PHARMACEUTICALS LIMITED, priority 2013, dated 2017)
Read-outs that look alike come from different tables or passages of the source.

Columns and labels:
Human plasma kallikrein = Human plasma kallikrein (Homo sapiens (Human), UniProt P03952); experiment: Determination of the IC50 for Plasma Kallikrein; format: biochemical; details: read-out: IC50 (human PKal)
Description: Human plasma kallikrein (Protogen) was incubated at 37° C. with the fluorogenic substrate H-DPro-Phe-Arg-AFC and various concentrations of the test compound. Residual enzyme activity (initial rate of reaction) was determined by measuring the change in optical absorbance at 410 nm and the IC50 value for the test compound was determined.

Human KLK1 = Human KLK1 (Homo sapiens (Human), UniProt P06870); experiment: Determination of the IC50 for KLK1; format: biochemical; details: 37° C., fluorogenic substrate H-DVal-Leu-Arg-AFC
Sequence of Human KLK1 (P06870 25-262): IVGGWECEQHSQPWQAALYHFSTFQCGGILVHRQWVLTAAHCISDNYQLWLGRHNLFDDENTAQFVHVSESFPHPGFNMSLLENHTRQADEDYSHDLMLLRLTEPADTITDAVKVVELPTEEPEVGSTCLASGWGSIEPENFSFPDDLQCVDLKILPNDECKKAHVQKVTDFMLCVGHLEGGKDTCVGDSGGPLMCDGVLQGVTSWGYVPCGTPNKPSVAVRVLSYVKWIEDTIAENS
Description: KLK1 inhibitory activity in vitro was determined using standard published methods (see e.g. Johansen et al., Int. J. Tiss. Reac. 1986, 8, 185; Shori et al., Biochem. Pharmacol., 1992, 43, 1209; Stürzebecher et al., Biol. Chem. Hoppe-Seyler, 1992, 373, 1025). Human KLK1 (Callbiochem) was incubated at 37° C. with the fluorogenic substrate H-DVal-Leu-Arg-AFC and various concentrations of the test compound. Residual enzyme activity (initial rate of reaction) was determined by measuring the change in optical absorbance at 410 nm and the IC50 value for the test compound was determined.

[1] = 37° C., fluorogenic substrate H-DPro-Phe-Arg-AFC

Sequence of Human plasma kallikrein (P03952 391-638): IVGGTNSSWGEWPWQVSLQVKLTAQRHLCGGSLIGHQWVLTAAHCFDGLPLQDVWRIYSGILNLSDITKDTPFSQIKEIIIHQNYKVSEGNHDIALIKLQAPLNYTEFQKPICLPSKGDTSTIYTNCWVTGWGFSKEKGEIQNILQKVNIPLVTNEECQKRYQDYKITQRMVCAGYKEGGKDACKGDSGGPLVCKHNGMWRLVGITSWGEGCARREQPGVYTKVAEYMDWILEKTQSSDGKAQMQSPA
Sequence of Human plasma kallikrein (P03952 20-390 partner): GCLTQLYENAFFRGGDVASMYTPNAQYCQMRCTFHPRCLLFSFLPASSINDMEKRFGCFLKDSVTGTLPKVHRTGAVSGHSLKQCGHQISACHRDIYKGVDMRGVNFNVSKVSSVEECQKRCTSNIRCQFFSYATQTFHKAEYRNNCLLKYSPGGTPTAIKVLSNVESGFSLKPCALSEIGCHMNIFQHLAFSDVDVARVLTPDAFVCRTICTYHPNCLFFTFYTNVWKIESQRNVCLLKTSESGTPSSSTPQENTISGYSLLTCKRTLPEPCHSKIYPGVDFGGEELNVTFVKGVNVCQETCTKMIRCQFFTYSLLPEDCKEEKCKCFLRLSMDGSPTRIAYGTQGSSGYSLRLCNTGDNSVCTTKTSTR

| SMILES | IC50 (Human plasma kallikrein; [1]) | IC50 (Human KLK1) | IC50 (Human plasma kallikrein) |
| --- | --- | --- | --- |
| CCCn1c(C(=O)NCc2ccc(CN)cc2)cc(C)c1Cc1ccccc1 [Example 78, 5-Benzyl-4-methyl-1-propyl-1H-pyrrole-2-carboxylic acid 4-aminomethyl-benzylamide] | 4130 nM | > 10000 nM |  |
| Cc1nn(Cc2csc(-c3ccccc3)n2)cc1C(=O)NCc1ccc(CN)cc1 [Example 81, 3-Methyl-1-(2-phenyl-thiazol-4-ylmethyl)-1H-pyrazole-4-carboxylic acid 4-aminomethyl-benzylamide] | 695 nM | > 10000 nM |  |
| NCc1ccc(CNC(=O)c2cnn(Cc3csc(-c4ccccc4)n3)c2C(F)(F)F)cc1 [Example 82, 1-(2-Phenyl-thiazol-4-ylmethyl)-5-trifluoromethyl-1H-pyrazole-4-carboxylic acid 4-aminomethyl-benzylamide] | 488 nM | > 8660 nM |  |
| Cc1cnn(Cc2ccc(Cn3cc(C(=O)NCc4ccc(CN)cc4)cn3)cc2)c1 [Example 85, 1-[4-(4-Methyl-pyrazol-1-ylmethyl)-benzyl]-1H-pyrazole-4-carboxylic acid 4-aminomethyl-benzylamide] |  | > 8510 nM | 11 nM |
| NCc1ccc(CNC(=O)c2cnn(Cc3ccc(C(=O)N4CCCCC4)cc3)c2)cc1 [Example 87, 1-[4-(Piperidine-1-carbonyl)-benzyl]-1H-pyrazole-4-carboxylic acid 4-aminomethyl-benzylamide] | 5480 nM | > 10000 nM |  |
| Cc1cc(C(=O)NCc2ccc(CN)cc2)c(C)n1Cc1ccc(Cn2ccccc2=O)cc1 [Example 90, 2,5-Dimethyl-1-[4-(2-oxo-2H-pyridin-1-ylmethyl)-benzyl]-1H-pyrrole-3-carboxylic acid 4-aminomethyl-benzylamide] |  | > 10000 nM | 114 nM |
| Cc1cc(CN)cc(C)c1CNC(=O)c1cc(C)n(Cc2ccc(Cn3ccccc3=O)cc2)c1C [Example 94, 2,5-Dimethyl-1-[4-(2-oxo-2H-pyridin-1-ylmethyl)-benzyl]-1H-pyrrole-3-carboxylic acid 4-aminomethyl-2,6-dimethyl-benzylamide] | 11 nM | 10900 nM |  |
| CCn1c(C(=O)NCc2c(C)cc(CN)cc2C)cc(C)c1Cc1ccc(Cn2ccccc2=O)cc1 [Example 95, 1-Ethyl-4-methyl-5-[4-(2-oxo-2H-pyridin-1-ylmethyl)-benzyl]-1H-pyrrole-2-carboxylic acid 4-aminomethyl-2,6-dimethyl-benzylamide] | 16 nM | 3900 nM |  |
| Cc1cnn(Cc2ccc(Cn3c(C)cc(C(=O)NCc4ccc(CN)cc4C)c3C)cc2)c1 [Example 97, 2,5-Dimethyl-1-[4-(4-methyl-pyrazol-1-ylmethyl)-benzyl]-1H-pyrrole-3-carboxylic acid 4-aminomethyl-2-methyl-benzylamide] | 28 nM | > 10000 nM |  |
| Cc1cnn(Cc2ccc(Cn3c(C)cc(C(=O)NCc4ccc(C5(N)CC5)cc4)c3C)cc2)c1 [Example 98, 2,5-Dimethyl-1-[4-(4-methyl-pyrazol-1-ylmethyl)-benzyl]-1H-pyrrole-3-carboxylic acid 4-(1-amino-cyclopropyl)-benzylamide] | 701 nM | > 10000 nM |  |
| CCn1c(C(=O)NCc2ccc(C3(N)CC3)cc2)cc(C)c1Cc1ccc(Cn2cc(C)cn2)cc1 [Example 100, 1-Ethyl-4-methyl-5-[4-(4-methyl-pyrazol-1-ylmethyl)-benzyl]-1H-pyrrole-2-carboxylic acid 4-(1-amino-cyclopropyl)-benzylamide] | 2320 nM | > 10000 nM |  |
| CCn1c(C(=O)NCc2c(C)cc(CN)cc2C)cc(C)c1Cc1ccc(Cn2cc(C)cn2)cc1 [Example 102, 1-Ethyl-4-methyl-5-[4-(4-methyl-pyrazol-1-ylmethyl)-benzyl]-1H-pyrrole-2-carboxylic acid 4-aminomethyl-2,6-dimethyl-benzylamide] | 11 nM | 4270 nM |  |
| Cc1cnn(Cc2ccc(Cn3cnc(C(=O)NCc4ccc(CN)cc4)c3)cc2)c1 [Example 104, 1-[4-(4-Methyl-pyrazol-1-ylmethyl)-benzyl]-1H-imidazole-4-carboxylic acid 4-aminomethyl-benzylamide] | 30 nM | > 10000 nM |  |
| Cc1cnn(Cc2ccc(Cn3cnc(C(=O)NCc4ccc(C5(N)CC5)cc4)c3)cc2)c1 [Example 105, 1-[4-(4-Methyl-pyrazol-1-ylmethyl)-benzyl]-1H-imidazole-4-carboxylic acid 4-(1-amino-cyclopropyl)-benzylamide] | 941 nM | > 10000 nM |  |
| Cc1cnn(Cc2ccc(Cn3cc(C(=O)NCc4ccc(CN)cc4C)cn3)cc2)c1 [Example 106, 1-[4-(4-Methyl-pyrazol-1-ylmethyl)-benzyl]-1H-pyrazole-4-carboxylic acid 4-aminomethyl-2-methyl-benzylamide] | 2 nM | > 10000 nM |  |
| Cc1cnn(Cc2ccc(Cn3cnc(C(=O)NCc4ccc(CN)cc4C)c3)cc2)c1 [Example 107, 1-[4-(4-Methyl-pyrazol-1-ylmethyl)-benzyl]-1H-imidazole-4-carboxylic acid 4-aminomethyl-2-methyl-benzylamide] | 3 nM | > 10000 nM |  |
| Cc1cnn(Cc2ccc(Cn3cc(C(=O)NCc4ccc(CN)cc4)nn3)cc2)c1 [Example 108, 1-[4-(4-Methyl-pyrazol-1-ylmethyl)-benzyl]-1H-[1,2,3]triazole-4-carboxylic acid 4-aminomethyl-benzylamide] | 33 nM | > 10000 nM |  |
| Cc1cnn(Cc2ccc(Cn3cc(C(=O)NCc4ccc(CN)cc4C)nn3)cc2)c1 [Example 109, 1-[4-(4-Methyl-pyrazol-1-ylmethyl)-benzyl]-1H-[1,2,3]triazole-4-carboxylic acid 4-aminomethyl-2-methyl-benzylamide] | 5 nM | > 10000 nM |  |

Now from value to compound, other results behind:

| IC50 (Human plasma kallikrein; [1]) | IC50 (Human KLK1) | SMILES | IC50 (Human plasma kallikrein) |
| --- | --- | --- | --- |
| 3720 nM | > 10000 nM | CCn1c(C(=O)NCc2ccc(CN)cc2)cc(C)c1Cc1ccccc1 [Example 77, 5-Benzyl-1-ethyl-4-methyl-1H-pyrrole-2-carboxylic acid 4-aminomethyl-benzylamide] |  |
| 5550 nM | > 10000 nM | CC(C)NC(=O)c1ccc(Cn2cc(C(=O)NCc3ccc(CN)cc3)cn2)cc1 [Example 79, 1-(4-Isopropylcarbamoyl-benzyl)-1H-pyrazole-4-carboxylic acid 4-aminomethyl-benzylamide] |  |
| 2340 nM | > 10000 nM | Cc1c(C(=O)NCc2ccc(CN)cc2)cnn1Cc1csc(-c2ccccc2)n1 [Example 80, 5-Methyl-1-(2-phenyl-thiazol-4-ylmethyl)-1H-pyrazole-4-carboxylic acid 4-aminomethyl-benzylamide] |  |
| 7 nM | > 10000 nM | Cc1cc(C)n(Cc2ccc(Cn3cc(C(=O)NCc4ccc(CN)cc4)cn3)cc2)n1 [Example 86, 1-[4-(3,5-Dimethyl-pyrazol-1-ylmethyl)-benzyl]-1H-pyrazole-4-carboxylic acid 4-aminomethyl-benzylamide] |  |
| 226 nM | > 10000 nM | NC1(c2ccc(CNC(=O)c3cnn(Cc4ccc(Cn5ccccc5=O)cc4)c3)cc2)CC1 [Example 89, 1-[4-(2-Oxo-2H-pyridin-1-ylmethyl)-benzyl]-1H-pyrazole-4-carboxylic acid 4-(1-amino-cyclopropyl)-benzylamide] |  |
| 29 nM | > 10000 nM | Cc1cc(CN)ccc1CNC(=O)c1cc(C)n(Cc2ccc(Cn3ccccc3=O)cc2)c1C [Example 91, 2,5-Dimethyl-1-[4-(2-oxo-2H-pyridin-1-ylmethyl)-benzyl]-1H-pyrrole-3-carboxylic acid 4-aminomethyl-2-methyl-benzylamide] |  |
| 40 nM | 10000 nM | CCn1c(C(=O)NCc2ccc(CN)cc2C)cc(C)c1Cc1ccc(Cn2ccccc2=O)cc1 [Example 92, 1-Ethyl-4-methyl-5-[4-(2-oxo-2H-pyridin-1-ylmethyl)-benzyl]-1H-pyrrole-2-carboxylic acid 4-aminomethyl-2-methyl-benzylamide] |  |
| 2840 nM | > 10000 nM | CCn1c(C(=O)NCc2ccc(C3(N)CC3)cc2)cc(C)c1Cc1ccc(Cn2ccccc2=O)cc1 [Example 93, 1-Ethyl-4-methyl-5-[4-(2-oxo-2H-pyridin-1-ylmethyl)-benzyl]-1H-pyrrole-2-carboxylic acid 4-(1-amino-cyclopropyl)-benzylamide] |  |
| 63 nM | > 10000 nM | Cc1cnn(Cc2ccc(Cn3c(C)cc(C(=O)NCc4ccc(CN)cc4)c3C)cc2)c1 [Example 96, 2,5-Dimethyl-1-[4-(4-methyl-pyrazol-1-ylmethyl)-benzyl]-1H-pyrrole-3-carboxylic acid 4-aminomethyl-benzylamide] |  |
| 38 nM | > 10000 nM | CCn1c(C(=O)NCc2ccc(CN)cc2C)cc(C)c1Cc1ccc(Cn2cc(C)cn2)cc1 [Example 99, 1-Ethyl-4-methyl-5-[4-(4-methyl-pyrazol-1-ylmethyl)-benzyl]-1H-pyrrole-2-carboxylic acid 4-aminomethyl-2-methyl-benzylamide] |  |
| 694 nM | > 10000 nM | Cc1cnn(Cc2ccc(Cn3cc(C(=O)NCc4ccc(C5(N)CC5)cc4)cn3)cc2)c1 [Example 103, 1-[4-(4-Methyl-pyrazol-1-ylmethyl)-benzyl]-1H-pyrazole-4-carboxylic acid 4-(1-amino-cyclopropyl)-benzylamide] |  |
